The record followed here is patent publication US20250051347A1, “BIFUNCTIONAL CHIMERIC HETEROCYCLIC COMPOUND AND USE THEREOF AS ANDROGEN RECEPTOR DEGRADER” (Hinova Pharmaceuticals, Inc., priority 2021, published 2025).

A short description of series [1]: Pharmacokinetics in mice (plasma exposure after oral administration). The series is classed as in vivo. The conditions noted are these: ICR mice, oral (i.g.) 3 mg/kg; for AUC(0-inf): mouse, read-out: After oral administration of 3 mg/kg, mouse plasma exposure AUCinf.
Series [2] addresses T1, androgen receptor (AR) splicing variant AR-v7 (Homo sapiens, UniProt P10275).
T1 construct: The degradation activity of compounds on AR-v7 in 22RV1 cells; host or cells: 22RV1 cells
T1 sequence (P10275 1-644 isoform P10275-3): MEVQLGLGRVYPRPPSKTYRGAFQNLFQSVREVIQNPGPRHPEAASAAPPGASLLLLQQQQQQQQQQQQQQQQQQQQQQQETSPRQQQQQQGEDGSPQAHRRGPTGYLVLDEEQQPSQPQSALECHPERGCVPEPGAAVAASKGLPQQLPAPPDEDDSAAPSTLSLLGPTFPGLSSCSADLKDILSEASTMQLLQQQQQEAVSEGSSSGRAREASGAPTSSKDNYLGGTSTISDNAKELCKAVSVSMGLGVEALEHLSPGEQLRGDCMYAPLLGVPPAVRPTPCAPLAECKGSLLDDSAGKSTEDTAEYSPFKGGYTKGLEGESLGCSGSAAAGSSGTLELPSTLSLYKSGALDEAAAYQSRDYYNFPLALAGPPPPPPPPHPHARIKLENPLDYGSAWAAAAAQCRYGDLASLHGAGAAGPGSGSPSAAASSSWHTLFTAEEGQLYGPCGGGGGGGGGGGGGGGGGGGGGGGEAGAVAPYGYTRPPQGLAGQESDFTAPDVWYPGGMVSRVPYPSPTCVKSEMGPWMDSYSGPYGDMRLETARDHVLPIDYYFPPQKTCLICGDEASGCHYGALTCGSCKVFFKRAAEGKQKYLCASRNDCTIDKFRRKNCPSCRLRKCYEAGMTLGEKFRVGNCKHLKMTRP
Put plainly: Degradation activity on androgen receptor splicing variant AR-v7 in 22RV1 cells (ELISA). The series is classed as cell-based. The conditions noted are these: AR-v7 degradation in 22RV1 cells, 48 h, class symbols. In general terms: An ELISA detects its analyte on a solid surface through an enzyme-linked reagent.

[3] abbreviates: Homo sapiens, 22Rv1, 144 h, read-out: 22RV1 IC50 (nM), 22RV1 cells, 6 days culture, CCK-8, OD 450 nm.

Like-named read-outs stand apart in the source and are kept apart here.

What is called IC50 is the midpoint of a concentration-inhibition curve. One may read the DC50 as the concentration giving 50% degradation. A low value points to a more potent degrader. With `CC(=O)c1ccc(Oc2ccc(C(C)(C)c3ccc(O[C@H]4C[C@H](Nc5ccc6c(c5)C(=O)N(C5CCC(=O)NC5=O)C6=O)C4)cc3)cc2)nn1` (stereo partly drawn) [Example 126, 5-(((trans)-3-(4-(2-(4-((6-acetylpyridazine-3-yl)oxy)phenyl)propan-2-yl)phenoxy)cyclobutyl)amino)-2-(2,6-dioxopiperidin-3-yl)isoindolin-1,3-dione], the half-inhibitory concentration (IC50) in the series with 22RV1 cells (setting [3]) was determined as 6 nM. For the same compound, the AUC(0-inf) in series [1] lay within 5000 to 30000 ng·h/mL. Moreover, the DC50 in series [2] is less than 10 nM.
For `Cc1nc(-c2ccc(Oc3ccc(C(C)(C)c4ccc(O[C@H]5C[C@H](Nc6ccc7c(c6)C(=O)N(C6CCC(=O)NC6=O)C7=O)C5)cc4)cc3)nn2)no1` (stereo partly drawn) [Example 328], in that order: 5 nM, 5000 to 30000 ng·h/mL and 11 to 100 nM.
Regarding `CC(C)(c1ccc(O[C@H]2C[C@H](Nc3ccc4c(c3)C(=O)N(C3CCC(=O)NC3=O)C4=O)C2)cc1)c1ccc(N2CCc3cnc(N4CC5(COC5)C4)nc3C2)cc1` (stereo partly drawn) [Example 189], the IC50 in the series on 22RV1 cells (setting [3]) turned out to be 9 nM. In series [1], the AUC(0-inf) fell in the range of 5000 to 30000 ng·h/mL. In addition, in series [2], the DC50 was less than 10 nM.
On the same counts, the results for `CNC(=O)c1nccc(COc2ccc(C(C)(C)c3ccc(OCCCNc4ccc5c(c4)C(=O)N(C4CCC(=O)NC4=O)C5=O)cc3)cc2)n1` (stereo not drawn) [Example 183, 4-((4-(2-(4-(3-((2-(2,6-dioxopiperidin-3-yl)-1,3-dioxoisoindolin-5-yl)amino)propoxy)phenyl)propan-2-yl)phenoxy)methyl)-N-methylpyrimidin-2-carbonylamine] are 20 nM, 100 to 1000 ng·h/mL and 11 to 100 nM.
On the same counts, the results for `Cc1noc(-c2ncc(Oc3ccc(C(C)(C)c4ccc(O[C@H]5C[C@H](Nc6ccc7c(c6)C(=O)N(C6CCC(=O)NC6=O)C7=O)C5)cc4)cc3)cn2)n1` (stereo partly drawn) [Example 254] are 6 nM, 5000 to 30000 ng·h/mL and less than 10 nM.
On to `CC(O)c1ccc(Oc2ccc(C(C)(C)c3ccc(O[C@H]4C[C@H](Nc5ccc6c(c5)C(=O)N(C5CCC(=O)NC5=O)C6=O)C4)cc3)cc2)nn1` (stereo partly drawn) [Example 125], for which, in the series with 22RV1 cells (setting [3]), the 50% inhibitory concentration (IC50) came to 10 nM. Moreover, the AUC(0-inf) in series [1] was 5000 to 30000 ng·h/mL. The same compound yielded a DC50 in series [2] of less than 10 nM.
On the same counts, the results for `CC(C)(c1ccc(OCc2ccnc(NC3CCN(CCCCO)CC3)n2)cc1)c1ccc(O[C@H]2C[C@H](Nc3ccc4c(c3)C(=O)N(C3CCC(=O)NC3=O)C4=O)C2)cc1` (stereo partly drawn) [Example 239] are 3 nM, 100 to 1000 ng·h/mL and less than 10 nM.
Take `Cc1nnc(-c2cccc(Oc3ccc(C(C)(C)c4ccc(O[C@H]5C[C@H](Nc6ccc7c(c6)C(=O)N(C6CCC(=O)NC6=O)C7=O)C5)cc4)cc3)n2)o1` (stereo partly drawn) [Example 423]: the IC50 in the series on 22RV1 cells (setting [3]) amounted to 3 nM. Moreover, in series [1], the AUC(0-inf) was 5000 to 30000 ng·h/mL. For the same compound, the half-maximal degradation concentration (DC50) in series [2] is less than 10 nM.
On the same counts, the results for `C=CC(c1ccc(Oc2ccc(-n3nccn3)nn2)cc1)c1ccc(O[C@H]2C[C@H](Nc3ccc4c(c3)C(=O)N(C3CCC(=O)NC3=O)C4=O)C2)cc1` (stereo partly drawn) [Example 371, 5-(((1r,3r)-3-(4-(1-(4-((6-(2H-1,2,3-triazole-2-yl)pyridazine-3-yl)oxy)phenyl)allyl)phenoxy)cyclobutyl)amino)-2-(2,6-dioxopiperidin-3-yl)isoindolin-1,3-dione] are 9 nM, 5000 to 30000 ng·h/mL and less than 10 nM.
For `CNC(=O)c1nccc(COc2ccc(C(C)(C)c3ccc(O[C@H]4C[C@@H](Nc5ccc6c(c5)C(=O)N(C5CCC(=O)NC5=O)C6=O)C4)cc3)cc2)n1` (stereo partly drawn) [Example 187, 4-((4-(2-(4-((1s,3s)-3-((2-(2,6-dioxopiperidin-3-yl)-1,3-dioxoisoindolin-5-yl)amino)cyclobutyloxy)phenyl)propan-2-yl)phenoxy)methyl)-N-methylpyrimidin-2-carbonylamine], in that order: 6 nM, 100 to 1000 ng·h/mL and less than 10 nM.
Turning to `Cc1nc(-c2ccc(Oc3ccc(C(C)(C)c4ccc(O[C@H]5C[C@H](Nc6ccc7c(c6)C(=O)N(C6CCC(=O)NC6=O)C7=O)C5)cc4)cc3)cn2)no1` (stereo partly drawn) [Example 209], the IC50 in the series on 22RV1 cells (read-out: 22RV1 IC50, 22RV1 cells, 6 days culture, CCK-8, OD 450 nm) came out at 5 nM. Further, the “After oral administration of 3 mg/kg, mouse plasma exposure AUCinf (μg*h/mL)” value in series [1] was “A (30-5 μg*h/mL)”. Also, the half-maximal degradation concentration (DC50) in series [2] is less than 10 nM.
In the case of `CC(C)(c1ccc(Oc2ccc(-n3nccn3)nc2)cc1)c1ccc(O[C@H]2C[C@H](Nc3ccc4c(c3)C(=O)N(C3CCC(=O)NC3=O)C4=O)C2)cc1` (stereo partly drawn) [Example 206, 5-((1r,3r)-3-(4-(2-(4-((6-(2H-1,2,3-triazol-2-yl)pyridin-3-yl)oxy)phenyl)propan-2-ylphenoxy)cyclobutyl)amino)-2-(2,6-dioxopiperidin-3-yl)isoindolin-1,3-dione], in the series on 22RV1 cells (setting [3]), the IC50 was determined as 10 nM. For the same compound, in series [1], the AUC(0-inf) is 5000 to 30000 ng·h/mL. Moreover, in series [2], the 50% degradation concentration (DC50) was less than 10 nM.
With `Cc1noc(-c2nccc(Oc3ccc(C(C)(C)c4ccc(O[C@H]5C[C@H](Nc6ccc7c(c6)C(=O)N(C6CCC(=O)NC6=O)C7=O)C5)cc4)cc3)n2)n1` (stereo partly drawn) [Example 426], in the series on 22RV1 cells (setting [3]), the IC50 was 7 nM. Also, the AUC(0-inf) in series [1] was in the range of 1000 to 5000 ng·h/mL. This compound also registered a DC50 in series [2] of less than 10 nM.
On to `Cc1nc(-c2cc(Oc3ccc(C(C)(C)c4ccc(O[C@H]5C[C@H](Nc6ccc7c(c6)C(=O)N(C6CCC(=O)NC6=O)C7=O)C5)cc4)cc3)ncn2)no1` (stereo partly drawn) [Example 588], for which, in the series with 22RV1 cells (setting [3]), the IC50 was found to be 13 nM. Moreover, the AUC(0-inf) in series [1] lay in the range of 5000 to 30000 ng·h/mL. Besides, the DC50 in series [2] is less than 10 nM.
In the case of `Cc1nnc(-c2ncc(Oc3ccc(C4(c5ccc(O[C@H]6C[C@H](Nc7ccc8c(c7)C(=O)N(C7CCC(=O)NC7=O)C8=O)C6)cc5)CCCC4)cc3)cn2)o1` (stereo partly drawn) [Example 483], the IC50 with 22RV1 cells (setting [3]) amounted to 2 nM. The AUC(0-inf) in series [1] lay in the range of 5000 to 30000 ng·h/mL. This compound registered a DC50 in series [2] of less than 10 nM.
For `CCC(CC)(c1ccc(Oc2ccc(C(C)O)nn2)cc1)c1ccc(O[C@H]2C[C@H](Nc3ccc4c(c3)C(=O)N(C3CCC(=O)NC3=O)C4=O)C2)cc1` (stereo partly drawn) [Example 175, 2-(2,6-dioxopiperidin-3-yl)-5-(((1r,3r)-3-(4-(3-(4-((6-(1-hydroxylethyl)pyridazine-3-yl)oxy)phenyl)pentan-3-yl)phenoxy)cyclobutyl)amino)isoindolin-1,3-dione], in that order: 4 nM, 1000 to 5000 ng·h/mL and less than 10 nM.
On the same counts, the results for `CC(C)(c1ccc(Oc2ncc(-n3nccn3)cn2)cc1)c1ccc(O[C@H]2C[C@H](Nc3ccc4c(c3)C(=O)N(C3CCC(=O)NC3=O)C4=O)C2)cc1` (stereo partly drawn) [Example 321] are 8 nM, 5000 to 30000 ng·h/mL and less than 10 nM.
On the same counts, the results for `CC(C)(c1ccc(OCc2ccnc(N3CC4(COC4)C3)n2)cc1)c1ccc(N2CC(Nc3ccc4c(c3)C(=O)N(C3CCC(=O)NC3=O)C4=O)C2)cc1` (stereo not drawn) [Example 154] are 7 nM, 1000 to 5000 ng·h/mL and less than 10 nM.
For `CC(O)c1ncc(Oc2ccc(C(C)(C)c3ccc(O[C@H]4C[C@H](Nc5ccc6c(c5)C(=O)N(C5CCC(=O)NC5=O)C6=O)C4)cn3)cc2)cn1` (stereo partly drawn) [Example 223], the IC50 in the series on 22RV1 cells (setting [3]) was determined as 0.5 nM. The AUC(0-inf) in series [1] fell in the range of 1000 to 5000 ng·h/mL. In series [2], the DC50 is less than 10 nM.
For `CC1(N)CN(c2nccc(COc3ccc(C(C)(C)c4ccc(O[C@H]5C[C@@H](Nc6ccc7c(c6)C(=O)N(C6CCC(=O)NC6=O)C7=O)C5)cc4)cc3)n2)C1` (stereo partly drawn) [Example 268], in that order: 9 nM, 1000 to 5000 ng·h/mL and less than 10 nM.
On the same counts, the results for `CC(C)(c1ccc(O[C@H]2C[C@@H](Nc3ccc4c(c3)C(=O)N(C3CCC(=O)NC3=O)C4=O)C2)cc1)c1ccc(N2CCc3cnc(N4CC5(COC5)C4)nc3C2)cc1` (stereo partly drawn) [Example 190] are 12 nM, 5000 to 30000 ng·h/mL and less than 10 nM.
Consider `CC(C)(c1ccc(OCc2ccnc(-n3nccn3)n2)cc1)c1ccc(O[C@H]2C[C@H](Nc3ccc4c(c3)C(=O)N(C3CCC(=O)NC3=O)C4=O)C2)cc1` (stereo partly drawn) [Example 231], for which, in the series with 22RV1 cells (setting [3]), the half-maximal inhibitory concentration (IC50) is 8.6 nM. Moreover, the AUC(0-inf) in series [1] lay within 5000 to 30000 ng·h/mL. Besides, the DC50 in series [2] was in the range of 11 to 100 nM.
For `CC(=O)c1ncc(Oc2ccc(C(C)(C)c3ccc(O[C@H]4C[C@H](Nc5ccc6c(c5)C(=O)N(C5CCC(=O)NC5=O)C6=O)C4)cc3)cc2)cn1` (stereo partly drawn) [Example 119, 5-(((trans)-3-(4-(2-(4-((2-acetylpyrimidin-5-yl)oxy)phenyl)propan-2-yl)phenoxy)cyclobutyl)amino)-2-(2,6-dioxopiperidin-3-yl) isoindolin-1,3-dione], in that order: 2 nM, 5000 to 30000 ng·h/mL and less than 10 nM.
